Measured values: patent US6455584B1, “Prostaglandin E1 derivatives” (Taisho Pharmaceutical Co., Ltd., priority 1999, dated 2002)

System: human vascular smooth muscle cells
Assay: DNA synthesis inhibition activity of PGE1 derivatives to human vascular smooth muscle cells (3H-thymidine intake)
Assay type: cell-based
Conditions: for Growth inhibition rate (percent to control): concentration of the added compound 1×10^−5 M, ethanol solution, 3H-thymidine intake after culturing 24 hours, compared with vehicle-treated control; for growth inhibition activity against human vascular smooth muscle cells: summary in words of Table 1, 1×10^−5 M
Procedure: Determination of DNA synthesis inhibition activity of PGE1 derivatives to human vascular smooth muscle cells
On a plate with 24 wells (manufactured by Corning Co.), 1×10^4 cells/well of quintic culture cells of vascular cells derived from normal human aorta (manufactured by Kurabo Co.) were inoculated and cultured for 2 days. The medium was exchanged from the growth medium (SG2: manufactured by Kurabo Co.) to the basal medium (SB2: manufactured by Kurabo Co.), and cultured for 24 hours, to which was added the growth medium (SG2) containing an ethanol solution of the test compound. 0.01 mci/well of ^3H-thymidine (manufactured by Daiichi Chemicals Co.) was added and, after culturing for 24 hours, the cultured supernatant was removed by suction, followed by washing with a phosphate buffer solution (PBS).
5% Trichloroacetic acid (TCA) was added and, after allowing to stand at 4° C. for 20 minutes, the mixture was washed once with TCA. The mixture was washed with PBS, and dissolved in 0.5 M aqueous potassium hydroxide solution. Intake of ^3H-thymidine was determined using 20 μl of the aqueous potassium hydroxide solution dissolving the cells which incorporated ^3H-thymidine in the nucleus by means of a liquid scintillation counter (manufactured by Hewlett-Packard Co.).
Note: Compounds 7, 70 and 92 in the table are those which were prepared in Examples. The test compounds were each used as an ethanol solution (the concentration of the added compound: 1×10^−5 M), and compared with control (vehicle-treated group).

## CCCC[C@@H](C)CC(O)C#CC1C(CCCCCCC(=O)O)C(=O)C[C@H]1SCCO (stereo partly drawn) [Compound 7, (11R,17R)-11-deoxy-11-(2-hydroxyethylthio)-17,20-dimethyl-13,14-didehydro-PGE1]
  Growth inhibition rate (percent to control): 98.4%
  growth inhibition activity against human vascular smooth muscle cells: high growth inhibition activity

## CCCC[C@@H](C)CC(O)C#CC1C(CCCCOCC(=O)OC)C(=O)C[C@H]1SCCO (stereo partly drawn) [Compound 70, (11R,17R)-3-oxa-11-deoxy-11-(2-hydroxyethylthio)-17,20-dimethyl-13,14-didehydro-PGE1 Methyl Ester]
  Growth inhibition rate (percent to control): 95.6%
  growth inhibition activity against human vascular smooth muscle cells: high growth inhibition activity

## COC(=O)COCCCCC1C(=O)C[C@@H](SCCO)C1C#CC(O)C[C@H](C)CCC=C(C)C (stereo partly drawn) [Compound 92, (11R,17R)-3-oxa-11-deoxy-11-(2-hydroxyethylthio)-20-isopropylidene-17-methyl-13,14-didehydro-PGE1 Methyl Ester]
  Growth inhibition rate (percent to control): 99.3%
  growth inhibition activity against human vascular smooth muscle cells: high growth inhibition activity
